Source: ChEMBL document CHEMBL4251597, “Discovery and evolution of aloperine derivatives as a new family of HCV inhibitors with novel mechanism” (Eur J Med Chem, 2018)
Calls of active or inactive are those of the source. The calls are words filed in the database; no cut-off is given here.

Assays:
Hepatitis C virus [1] = assay: Antiviral activity against HCV J6/JFH/JC-1 infected in human Huh7.5 cells assessed as inhibition of viral RNA replication after 72 hrs by qRT-PCR method; assay type: functional, organism-based, Hepacivirus hominis; details: J6/JFH/JC-1, Huh7.5, 72 h
[2] = Cytotoxicity against human Huh7.5 cells after 72 hrs by MTT assay; assay type: cell-based
[3] = Selectivity index, ratio of CC50 for human Huh7.5 cells to EC50 for HCV J6/JFH/JC-1; assay type: toxicity; details: read-out: Ratio CC50/EC50
[4] = Tmax in mouse at 25 mg/kg, po after 0.25 to 6 hrs; assay type: ADME, organism-based; details: in vivo
[5] = Cmax in mouse at 25 mg/kg, po after 0.25 to 6 hrs; assay type: ADME, organism-based; design: dose 25 mg/kg, route oral; details: in vivo
[6] = AUC (0 to t) in mouse at 25 mg/kg, po after 0.25 to 6 hrs; assay type: ADME, organism-based; design: time upper 6 hr, time lower 0.25 hr, dose 25 mg/kg, route oral; details: in vivo
[7] = MRT in mouse at 25 mg/kg, po after 0.25 to 6 hrs; assay type: ADME, organism-based; details: in vivo
[8] = Half life in mouse at 25 mg/kg, po after 0.25 to 6 hrs; assay type: ADME, organism-based; details: in vivo
[9] = Acute toxicity in po dosed Kunming mouse measured for 7 days; assay type: organism-based; details: in vivo
Hepatitis C virus [10] = assay: Antiviral activity against HCV J6/JFH/JC-1 infected in human Huh7.5 cells assessed as inhibition of NS3/4A levels after 72 hrs by Western blot method; assay type: functional, organism-based; details: Hepacivirus hominis
Hepatitis C virus [11] = assay: Antiviral activity against HCV J6/JFH/JC-1 infected in human Huh7.5 cells assessed as inhibition of viral core protein levels after 72 hrs by Western blot method; assay type: functional, organism-based; details: Hepacivirus hominis
Hepatitis C virus [12] = assay: Antiviral activity against HCV J6/JFH/JC-1 infected in human Huh7.5 cells assessed as inhibition of viral core protein levels at 0.5 uM by Western blot method; assay type: functional, organism-based; details: Hepacivirus hominis, TDE = time-dependent effect
Hepatitis C virus [13] = assay: Antiviral activity against HCV J6/JFH/JC-1 infected in human Huh7.5 cells assessed as inhibition of NS3/4A protein levels at 0.5 uM by Western blot method; assay type: functional, organism-based; details: Hepacivirus hominis, TDE = time-dependent effect
Hepatitis C virus [14] = assay: Antiviral activity against HCV J6/JFH/JC-1 infected in human Huh7.5 cells assessed as inhibition of NS3/4A A156T mutant levels at 20 uM treated with fresh media containing compound every 2 days by Western blot method; assay type: functional, organism-based; details: Hepacivirus hominis
Hepatitis C virus [15] = assay: Antiviral activity against HCV J6/JFH/JC-1 infected in human Huh7.5 cells assessed as inhibition of NS3/4A D168V mutant levels at 20 uM treated with fresh media containing compound every 2 days by Western blot method; assay type: functional, organism-based; details: Hepacivirus hominis
Hepatitis C virus [16] = assay: Antiviral activity against HCV J6/JFH/JC-1 infected in human Huh7.5 cells assessed as inhibition of NS3/4A S282T mutant levels at 20 uM treated with fresh media containing compound every 2 days by Western blot method; assay type: functional, organism-based; details: Hepacivirus hominis
Hepatitis C virus [17] = assay: Antiviral activity against HCV J6/JFH/JC-1 infected in human Huh7.5 cells harboring NS3/4A A156T mutant assessed as inhibition of viral core protein levels at 20 uM treated with fresh media containing compound every 2 days by Western blot method; assay type: functional, organism-based; details: Hepacivirus hominis
Hepatitis C virus [18] = assay: Antiviral activity against HCV J6/JFH/JC-1 infected in human Huh7.5 cells harboring NS3/4A D168V mutant assessed as inhibition of viral core protein levels at 20 uM treated with fresh media containing compound every 2 days by Western blot method; assay type: functional, organism-based; details: Hepacivirus hominis
Hepatitis C virus [19] = assay: Antiviral activity against HCV J6/JFH/JC-1 infected in human Huh7.5 cells harboring […] S282T mutant assessed as inhibition of viral core protein levels at 20 uM treated with fresh media containing compound every 2 days by Western blot method; assay type: functional, organism-based; details: Hepacivirus hominis
Hepatitis C virus [20] = assay: Antiviral activity against HCV J6/JFH/JC-1 infected in human Huh7.5 cells assessed as inhibition of NS3/4A levels at 10 uM treated with fresh media containing compound every 2 days in presence of NS3/4A inhibitor simeprevir by Western blot method; assay type: functional, organism-based; details: Hepacivirus hominis
Hepatitis C virus [21] = assay: Antiviral activity against HCV J6/JFH/JC-1 infected in human Huh7.5 cells assessed as inhibition of viral core protein levels at 10 uM treated with fresh media containing compound every 2 days in presence of NS3/4A inhibitor simeprevir by Western blot method; assay type: functional, organism-based; details: Hepacivirus hominis
Hepatitis C virus [22] = assay: Antiviral activity against HCV J6/JFH/JC-1 infected in human Huh7.5 cells assessed as inhibition of NS3/4A levels at 10 uM treated with fresh media containing compound every 2 days in presence of NS5B inhibitor sofosbuvir by Western blot method; assay type: functional, organism-based; details: Hepacivirus hominis
Hepatitis C virus [23] = assay: Antiviral activity against HCV J6/JFH/JC-1 infected in human Huh7.5 cells assessed as inhibition of NS3/4A levels at 10 uM treated with fresh media containing compound every 2 days in presence of NS5A inhibitor daclatasvir by Western blot method; assay type: functional, organism-based; details: Hepacivirus hominis
Hepatitis C virus [24] = assay: Antiviral activity against HCV J6/JFH/JC-1 infected in human Huh7.5 cells assessed as inhibition of viral core protein levels at 10 uM treated with fresh media containing compound every 2 days in presence of NS5B inhibitor sofosbuvir by Western blot method; assay type: functional, organism-based; details: Hepacivirus hominis
Hepatitis C virus [25] = assay: Antiviral activity against HCV J6/JFH/JC-1 infected in human Huh7.5 cells assessed as inhibition of viral core protein levels at 10 uM treated with fresh media containing compound every 2 days in presence of NS5A inhibitor daclatasvir by Western blot method; assay type: functional, organism-based; details: Hepacivirus hominis
Hepatitis C virus [26] = assay: Antiviral activity against HCV infected in human GS4.3 cells assessed as inhibition of NS3/4A levels at 20 uM treated with fresh media containing compound every 2 days measured after 6 days by Western blot method; assay type: functional, organism-based; details: Hepacivirus hominis
Hepatitis C virus [27] = assay: Antiviral activity against HCV infected in human GS4.3 cells assessed as inhibition of viral core protein levels at 20 uM treated with fresh media containing compound every 2 days measured after 6 days by Western blot method; assay type: functional, organism-based; details: Hepacivirus hominis
[28] = target: Hepatitis C virus serine protease, NS3/NS4A (Hepatitis C virus) (UniProt D2K2A8+A3EZI9); assay: Inhibition of HCV NS3/4A protease at 200 uM; assay type: protein-complex assay; details: Hepacivirus hominis
Hepatitis C virus [29] = assay: Antiviral activity against HCV J6/JFH/JC-1 infected in human Huh7.5 cells assessed as inhibition of NS3/4A levels at 20 uM incubated for 2 to 24 hrs measured within 72 hrs by Western blot method; assay type: functional, organism-based; details: Hepacivirus hominis
Hepatitis C virus [30] = assay: Antiviral activity against HCV J6/JFH/JC-1 infected in human Huh7.5 cells assessed as inhibition of viral core protein levels at 20 uM incubated for 2 to 24 hrs measured within 72 hrs by Western blot method; assay type: functional, organism-based; details: Hepacivirus hominis
Hepatitis C virus [31] = assay: Antiviral activity against HCV J6/JFH/JC-1 infected in human Huh7.5 cells assessed as inhibition of NS3/4A levels at 20 uM preincubated for 2 hrs followed addition of Huh7.5 cells for 4 hrs measured within 72 hrs by Western blot method; assay type: functional, organism-based; details: Hepacivirus hominis
Hepatitis C virus [32] = assay: Antiviral activity against HCV J6/JFH/JC-1 infected in human Huh7.5 cells assessed as inhibition of viral core protein levels at 20 uM preincubated for 2 hrs followed addition of Huh7.5 cells for 4 hrs measured within 72 hrs by Western blot method; assay type: functional, organism-based; details: Hepacivirus hominis
Hepatitis C virus [33] = assay: Antiviral activity against 22.5 to 90 IU/cell of HCV J6/JFH/JC-1 infected in human Huh7.5 cells assessed as inhibition of NS3/4A levels at 20 uM treated with fresh media containing compound every 2 days by Western blot method; assay type: functional, organism-based; details: Hepacivirus hominis
Hepatitis C virus [34] = assay: Antiviral activity against 22.5 to 90 IU/cell of HCV J6/JFH/JC-1 infected in human Huh7.5 cells assessed as inhibition of viral core protein levels at 20 uM treated with fresh media containing compound every 2 days by Western blot method; assay type: functional, organism-based; details: Hepacivirus hominis

SMILES: CN1CCN(S(=O)(=O)N2CCCC3=C[C@H]4C[C@H](CN5CCCC[C@H]45)[C@@H]32)CC1
- EC50 (Hepatitis C virus [1]): 3.56 µM
- CC50 at 72 h [2]: > 500 µM
- selectivity ratio [3]: > 140
- Tmax [4]: 1 h
- Cmax [5]: 1370 nM
- AUC(0-t) [6]: 7.6 µM·h
- MRT [7]: 6.11 h
- half-life [8]: 9.47 h
- LD50 at 168 h [9]: > 1000 mg/kg
- inhibition (Hepatitis C virus [10]): Dose-dependent effect
- inhibition (Hepatitis C virus [11]): Dose-dependent effect
- inhibition (Hepatitis C virus [12]): Tde
- inhibition (Hepatitis C virus [13]): Tde
- inhibition (Hepatitis C virus [14]): Active
- inhibition (Hepatitis C virus [15]): Active
- inhibition (Hepatitis C virus [16]): Active
- inhibition (Hepatitis C virus [17]): Active
- inhibition (Hepatitis C virus [18]): Active
- inhibition (Hepatitis C virus [19]): Active
- inhibition (Hepatitis C virus [20]): Active
- inhibition (Hepatitis C virus [21]): Active
- inhibition (Hepatitis C virus [22]): Active
- inhibition (Hepatitis C virus [23]): Active
- inhibition (Hepatitis C virus [24]): Active
- inhibition (Hepatitis C virus [25]): Active
- inhibition (Hepatitis C virus [26]): Active
- inhibition (Hepatitis C virus [27]): Active
- inhibition [28]: inactive
- inhibition (Hepatitis C virus [29]): Active
- inhibition (Hepatitis C virus [30]): Active
- inhibition (Hepatitis C virus [31]): Active
- inhibition (Hepatitis C virus [32]): Active
- inhibition (Hepatitis C virus [33]): Active
- inhibition (Hepatitis C virus [34]): Active
